Laboratory results taken from US9060971B2, “Combination pharmaceutical agents as inhibitors of HCV replication” (Enanta Pharmaceuticals, Inc., priority 2010, dated 2015).

Key:
[1] = test system: "Huh-luc/neo-ET" HCV replicon; assay: In vitro synergy assay, two drug combinations, luciferase, Bliss additivity; format: cell-based; settings: 72 h
Description: The coding sequence of the published HCV replicon was synthesized and subsequently assembled in a modified plasmid pBR322 (Promega, Madison, Wis.) using standard molecular biology techniques. One replicon cell line (“SGR 11-7”) stably expresses HCV replicon RNA which consists of (i) the HCV 5′UTR fused to the first 12 amino acids of the capsid protein, (ii) the neomycin phosphotransferase gene (neo), (iii) the IRES from encephalomyocarditis virus (EMCV), and (iv) HCV NS2 to NS5B genes and the HCV 3′UTR. Another replicon cell line (“Huh-luc/neo-ET”) described by Vrolijk et. al. (Vrolijk et. al. (2003) Journal of Virological Methods 110:201-209, expressly incorporated by reference in its entirety) stably expresses HCV replicon RNA which consists of (i) the HCV 5′UTR fused to the first 12 amino acids of the capsid protein, (ii) the firefly luciferase reporter gene, (iii) the ubiquitin gene, (iv) the neomycin phosphotransferase gene (neo), (v) the IRES from encephalomyocarditis virus (EMCV), and (vi) HCV NS3 to NS5B genes that harbor cell culture adaptive mutations (E1202G, T12801, K1846T) and the HCV 3′UTR.
Since clinical drug resistance often develops in viral infections following single agent therapies, there is a need to assess the additive, antagonistic, or synergistic properties of combination therapies. We used the HCV replicon system to assess the potential use of our NS5A inhibitors in combination therapies with Interferon alpha, cyclosporine analogs and inhibitors targeting other HCV proteins. The acute effects of combinations of drugs were studied in the “Huh-luc/neo-ET” replicon with each chemical agent titrated in an X or Y direction in a 6 point two-fold dilution curve centered around the EC50 of each drug. Briefly, replicon cells were seeded at 7,000 cells per well in 90 ul DMEM (without phenol red, Invitrogen Cat. #31053-036) per well with 10% FCS, 1% non-essential amino acids, 1% of Glutamax and 1% of 100× penicillin/streptomycin and incubated overnight at 37° C., 5% C02, 100% relative humidity. 16-20 h after seeding cells, test compounds previously solubilized and titrated in dimethyl sulfoxide (“DMSO”) from each X plate and Y plate were diluted 1:100 in DMEM (without phenol red, Invitrogen Cat. #31053-036) with 10% FCS, 1% non-essential amino acids, 1% of Glutamax and 1% of 100× penicillin/streptomycin and added directly to the 96-well plate containing cells and growth medium at a 1:10 dilution for a final dilution of compound and DMSO of 1:1000 ([…] final concentration). Drug treated cells were incubated at 37° C., 5% C02, 100% relative humidity for 72 hours before performing a luciferase assay using 100 ul per well BriteLite Plus (Perkin Elmer) according to the manufacturer's instructions. Data analysis utilizes the method published by Prichard and Shipman (Antiviral Research, 1990. 14:181-205). Using this method, the combination data were analyzed for antagonistic, additive, or synergistic combination effects across the entire combination surface created by the diluted compounds in combination.
We used the HCV replicon system to assess the potential use of our NS5A inhibitor in combination therapies with Interferon alpha, cyclosporine analogs or inhibitors targeting other HCV proteins. Several HCV antivirals, including protease inhibitors (ITMN-191, SCH503034, VX-950), a nucleoside analog (such as those described in WO01/90121(A2), U.S. Pat. No. 6,348,587B1, WO01/60315 or WO01/32153), a nonnucleoside NS5B polymerase inhibitor (GSK625433), a cyclosporine analog, as well as Interferon alpha, are tested in combination with Compounds 90, 93 or 95 herein, inhibitors of HCV NS5A. Antivirals were tested at five concentrations each, diluted in DMSO by 2-fold dilutions. The antivirals were tested as monotherapies and in combination with Compounds 90, 93 or 95 (described herein) at various concentration ratios. […]

HCV 1b genotype replicon = assay: HCV replicon drug screening assay (quantitative RT-PCR or luciferase), genotype 1b; format: cell-based; settings: Hepatitis C virus; HCV 1b genotype replicon; quantitative RT-PCR or luciferase assay; read-out: Genotype-1b replicon EC50 Range
Summary of the method: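 Huh-derived subgenomic genotype 1b replicon lines (SGR 11-7, neo; Huh-luc/neo-ET, firefly luciferase with adaptive mutations) grown at 37 °C. EC50 from HCV RNA by TaqMan one-step qRT-PCR normalised to GAPDH RNA. Cytotoxicity measured in parallel by MTS.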

[2] = in combination with Boceprevir (SCH503034)
[3] = in combination with Interferon-alpha
[4] = in combination with Telaprevir (VX-950)

SMILES: COC(=O)N[C@H](C(=O)N1CCC[C@H]1c1nc(-c2ccc(C#Cc3ccc4[nH]c([C@@H]5CC6(CC6)CN5C(=O)[C@@H](NC(=O)OC)C(C)C)nc4c3)cc2)c[nH]1)C(C)C [Compound 93]
- Bliss Volume (%) at 95% Confidence Intervals, Antagonism [1, 2]: 0%
- Bliss Volume (%) at 95% Confidence Intervals, Synergy [1, 2]: 63%
- Result (combination effect) [1, 2]: Synergistic
- Synergy Score [1, 2]: 63%
- Bliss Volume (%) at 95% Confidence Intervals, Antagonism ([1]; in combination with GSK625433): 0%
- Bliss Volume (%) at 95% Confidence Intervals, Synergy ([1]; in combination with GSK625433): 113%
- Result (combination effect) ([1]; in combination with GSK625433): Synergistic
- Synergy Score ([1]; in combination with GSK625433): 113%
- Bliss Volume (%) at 95% Confidence Intervals, Antagonism ([1]; in combination with ITMN-191): 0%
- Bliss Volume (%) at 95% Confidence Intervals, Synergy ([1]; in combination with ITMN-191): 14%
- Result (combination effect) ([1]; in combination with ITMN-191): Additive
- Synergy Score ([1]; in combination with ITMN-191): 14%
- Bliss Volume (%) at 95% Confidence Intervals, Antagonism [1, 3]: 0%
- Bliss Volume (%) at 95% Confidence Intervals, Synergy [1, 3]: 38%
- Result (combination effect) [1, 3]: Synergistic
- Synergy Score [1, 3]: 38%
- Bliss Volume (%) at 95% Confidence Intervals, Antagonism ([1]; in combination with R7128): 0%
- Bliss Volume (%) at 95% Confidence Intervals, Synergy ([1]; in combination with R7128): 14%
- Result (combination effect) ([1]; in combination with R7128): Additive
- Synergy Score ([1]; in combination with R7128): 14%
- Bliss Volume (%) at 95% Confidence Intervals, Antagonism [1, 4]: 0%
- Bliss Volume (%) at 95% Confidence Intervals, Synergy [1, 4]: 7%
- Result (combination effect) [1, 4]: Additive
- Synergy Score [1, 4]: 7%
- EC50 (HCV 1b genotype replicon): < 1 nM
